Columns and labels:
Assay in all cases: relative viability (nuclei count vs DMSO), 5 days (fraction); higher = more cells survive
[1] = compound: C1CSC2=C(C(=O)N1)SC3=C2C=C(C=C3)O [kb NB 142-70] + CC(C)C[C@H](NC(=O)[C@H](Cc1ccccc1)NC(=O)c1cnccn1)B(O)O [Bortezomib] (partner 0.002 µM)
Method in brief: (§1)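 Lung cancer cell lines in 1536-well plates were dosed by pin tool the day after seeding, either with one drug alone or with a fixed anchor-drug dose plus five library-drug doses (not always all listed) in √10 steps. After 5 days, cells were fixed and their nuclei stained in one step (final 0.05% Triton X-100, 1% formaldehyde, 1 ug/ml Hoechst), then counted on 4× images. Relative viability is the nuclei count in treated wells divided by that in vehicle wells. Values are medians of duplicate plates.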

[2] = compound: NCC(=O)Nc1ccc(-n2nc(C(F)(F)F)cc2-c2ccc3c(ccc4ccccc43)c2)cc1 + Cc1nc(Nc2ncc(C(=O)Nc3c(C)cccc3Cl)s2)cc(N2CCN(CCO)CC2)n1 [Dasatinib] (partner 0.075 µM)
Method in brief: as §1

[3] = compound: C1CSC2=C(C(=O)N1)SC3=C2C=C(C=C3)O [kb NB 142-70] + C[C@]1(O)C[C@@H](c2nc(-c3ccc4ccc(-c5ccccc5)nc4c3)c3c(N)nccn32)C1 [Linsitinib] (partner 1 µM)
Method in brief: as §1

[4] = compound: NCC(=O)Nc1ccc(-n2nc(C(F)(F)F)cc2-c2ccc3c(ccc4ccccc43)c2)cc1 + CC(=O)c1c(C)c2cnc(Nc3ccc(N4CCNCC4)cn3)nc2n(C2CCCC2)c1=O [Palbociclib] (partner 0.5 µM)
Method in brief: as §1

[5] = compound: C1CSC2=C(C(=O)N1)SC3=C2C=C(C=C3)O [kb NB 142-70] + Cc1nc(Nc2ncc(C(=O)Nc3c(C)cccc3Cl)s2)cc(N2CCN(CCO)CC2)n1 [Dasatinib] (partner 0.075 µM)
Method in brief: as §1

Cell Line	relative viability ([1]; first compound 0.1 µM)	relative viability ([1]; first compound 1 µM)	relative viability ([1]; first compound 3.162 µM)	relative viability ([2]; first compound 0.02 µM)	relative viability ([2]; first compound 0.06325 µM)	relative viability ([2]; first compound 0.2 µM)	relative viability ([2]; first compound 0.6325 µM)	relative viability ([2]; first compound 2 µM)	relative viability ([3]; first compound 0.1 µM)	relative viability ([3]; first compound 1 µM)	relative viability ([3]; first compound 3.162 µM)	relative viability ([4]; first compound 0.02 µM)	relative viability ([4]; first compound 0.06325 µM)	relative viability ([4]; first compound 0.2 µM)	relative viability ([4]; first compound 0.6325 µM)	relative viability ([4]; first compound 2 µM)	relative viability ([5]; first compound 0.1 µM)	relative viability ([5]; first compound 1 µM)	relative viability ([5]; first compound 3.162 µM)
LCLC-103H	1.17	1.09	1.07	0.439	0.458	0.485	0.465	0.433	0.989	1.2	1.15	0.41	0.503	0.483	0.413	0.504	0.459	0.521	0.505
LOU-NH91	0.467	0.431	0.353	0.577	0.601	0.536	0.558	0.541	0.911	0.882	0.612	0.647	0.519	0.528	0.541	0.582	0.486	0.508	0.556
LU99A	1.29	0.995	0.732	0.505	0.602	0.538	0.598	0.347	0.519	0.518	0.341	0.418	0.474	0.434	0.487	0.438	0.496	0.583	0.405
LXF-289	1.02	0.942	0.895	0.188	0.246	0.315	0.218	0.241	0.914	0.92	0.916	0.591	0.599	0.59	0.588	0.628	0.212	0.215	0.21
NCI-H23	1.1	0.896	0.516	0.885	0.781	0.825	0.73	0.832	0.708	0.529	0.289	0.493	0.548	0.535	0.507	0.553	0.792	0.713	0.287
NCI-H322M	1.2	1.25	1.3	0.268	0.266	0.251	0.271	0.261	0.89	1.03	0.938	0.51	0.502	0.388	0.505	0.493	0.24	0.278	0.269
NCI-H441	0.323	0.793	0.307	0.444	0.665	0.729	0.548	0.681	0.656	0.457	0.356	0.242	0.258	0.265	0.228	0.25	0.634	0.575	0.366
NCI-H460	1.05	1.08	0.608	0.425	0.597	0.543	0.494	0.547	0.704	1	0.277	0.143	0.2	0.251	0.171	0.2	0.504	0.422	0.336
NCI-H520	0.52	0.541	0.277	0.207	0.206	0.177	0.213	0.212	0.874	0.972	0.641	0.222	0.224	0.24	0.193	0.258	0.168	0.197	0.173
NCI-H647	0.987	0.773	1.06	0.205	0.167	0.227	0.193	0.208	1.1	1.2	1.17	0.431	0.385	0.564	0.294	0.402	0.185	0.189	0.119
NCI-H650	0.845	0.719	0.561	0.4	0.479	0.434	0.377	0.459	0.908	0.878	0.755	0.377	0.315	0.329	0.358	0.296	0.495	0.475	0.377
NCI-H661	0.808	0.805	0.802	0.866	1.01	0.884	0.943	0.925	0.561	0.607	0.602	0.412	0.402	0.39	0.416	0.433	0.916	0.89	0.796
NCI-H727	0.897	1.1	1.02	0.375	0.365	0.347	0.467	0.345	0.356	0.323	0.28	0.674	0.795	0.56	0.72	0.682	0.427	0.354	0.272
NCI-H838	0.83	0.777	0.877	0.233	0.305	0.273	0.302	0.285	0.993	1.08	0.98	0.228	0.237	0.224	0.192	0.213	0.268	0.282	0.301
NCI-H1355	1.24	1.16	1.22	0.664	0.813	0.723	0.754	0.756	0.781	0.835	0.757	0.426	0.43	0.393	0.408	0.405	0.7	0.642	0.64
NCI-H1437	0.485	0.492	0.482	0.309	0.359	0.265	0.506	0.526	1.15	1.1	1.07	0.331	0.328	0.3	0.341	0.307	0.485	0.459	0.433

— the supplement of paper PMC10307832
